Results reported in patent publication US9738673B1, “Ferrocene derivative, preparation method and use thereof” (XIAMEN INSTITUTE OF RARE EARTH MATERIALS, priority 2016, dated 2017).

Experiments:
[1] = system: human lung cancer cell line A549; test: In vitro anticancer activity MTT assay, A549; assay type: cell-based; settings: 48 h, A549 cells
Protocol: (§1) Using a wavelength-tunable microplate reader absorbance value (A595) was measured at 595 nm. Inhibitory ratio was calculated with the following formula: […]
(§2) wherein, IC50 values were calculated using the GraphPad Prism 5 software.

[2] = system: breast cancer cell line MCF-7; test: In vitro anticancer activity MTT assay, MCF-7; assay type: cell-based, human; settings: 48 h, MCF-7 cells
Protocol: as §1, §2

[3] = system: colorectal cancer cell line HCT-116; test: In vitro anticancer activity MTT assay, HCT116; assay type: cell-based, human; settings: 48 h, HCT116 cells
Protocol: as §1, §2

## O=C(OCc1cc(-c2ccccc2)no1)[c-]1cccc1.O=C(OCc1cc(-c2ccccc2)no1)[c-]1cccc1.[Fe+2] [YJP-1]
[1]
  IC50: 252 µM
[2]
  IC50: 990 µM

## Cc1ccc(-c2cc(COC(=O)[c-]3cccc3)on2)cc1.Cc1ccc(-c2cc(COC(=O)[c-]3cccc3)on2)cc1.[Fe+2] [YJP-2]
[3]
  IC50: 220 µM
[1]
  IC50: 198 µM
[2]
  IC50: 136 µM

## CCc1ccc(-c2cc(COC(=O)[c-]3cccc3)on2)cc1.CCc1ccc(-c2cc(COC(=O)[c-]3cccc3)on2)cc1.[Fe+2] [YJP-3]
[2]
  IC50: 86.8 µM

## CC(C)(C)c1ccc(-c2cc(COC(=O)[c-]3cccc3)on2)cc1.CC(C)(C)c1ccc(-c2cc(COC(=O)[c-]3cccc3)on2)cc1.[Fe+2] [YJP-4]
[3]
  IC50: 2180 µM
[1]
  IC50: 220 µM
[2]
  IC50: 150 µM

## Cc1cc(C)c(-c2cc(COC(=O)[c-]3cccc3)on2)c(C)c1.Cc1cc(C)c(-c2cc(COC(=O)[c-]3cccc3)on2)c(C)c1.[Fe+2] [YJP-5]
[1]
  IC50: 189 µM
[2]
  IC50: 142 µM

## COc1ccc(-c2cc(COC(=O)[c-]3cccc3)on2)cc1.COc1ccc(-c2cc(COC(=O)[c-]3cccc3)on2)cc1.[Fe+2] [YJP-6]
[2]
  IC50: 182 µM

## COc1ccccc1-c1cc(COC(=O)[c-]2cccc2)on1.COc1ccccc1-c1cc(COC(=O)[c-]2cccc2)on1.[Fe+2] [YJP-7]
[1]
  IC50: 868 µM
[2]
  IC50: 157 µM

## COc1cccc(-c2cc(COC(=O)[c-]3cccc3)on2)c1.COc1cccc(-c2cc(COC(=O)[c-]3cccc3)on2)c1.[Fe+2] [YJP-8]
[3]
  IC50: 236 µM
[1]
  IC50: 142 µM
[2]
  IC50: 138 µM

## O=C(OCc1cc(-c2ccc(C(F)(F)F)cc2)no1)[c-]1cccc1.O=C(OCc1cc(-c2ccc(C(F)(F)F)cc2)no1)[c-]1cccc1.[Fe+2] [YJP-9]
[2]
  IC50: 133 µM

## O=C(OCc1cc(-c2ccc(F)cc2)no1)[c-]1cccc1.O=C(OCc1cc(-c2ccc(F)cc2)no1)[c-]1cccc1.[Fe+2] [YJP-11]
[1]
  IC50: 2860 µM
[2]
  IC50: 138 µM

## O=C(OCc1cc(-c2ccccc2F)no1)[c-]1cccc1.O=C(OCc1cc(-c2ccccc2F)no1)[c-]1cccc1.[Fe+2] [YJP-12]
[3]
  IC50: 149 µM
[1]
  IC50: 168 µM
[2]
  IC50: 159 µM

## O=C(OCc1cc(-c2ccc(Cl)cc2)no1)[c-]1cccc1.O=C(OCc1cc(-c2ccc(Cl)cc2)no1)[c-]1cccc1.[Fe+2] [YJP-13]
[3]
  IC50: 486 µM
[1]
  IC50: 690 µM
[2]
  IC50: 169 µM

## O=C(OCc1cc(-c2ccccc2Cl)no1)[c-]1cccc1.O=C(OCc1cc(-c2ccccc2Cl)no1)[c-]1cccc1.[Fe+2] [YJP-14]
[3]
  IC50: 228 µM
[1]
  IC50: 450 µM
[2]
  IC50: 172 µM

## O=C(OCc1cc(-c2ccc(Cl)cc2Cl)no1)[c-]1cccc1.O=C(OCc1cc(-c2ccc(Cl)cc2Cl)no1)[c-]1cccc1.[Fe+2] [YJP-15]
[3]
  IC50: 234 µM
[1]
  IC50: 222 µM
[2]
  IC50: 190 µM

## O=C(OCc1cc(-c2ccc(Br)cc2)no1)[c-]1cccc1.O=C(OCc1cc(-c2ccc(Br)cc2)no1)[c-]1cccc1.[Fe+2] [YJP-16]
[3]
  IC50: 63.9 µM
[1]
  IC50: 251 µM
[2]
  IC50: 156 µM

## O=C(OCc1cc(-c2ccc([N+](=O)[O-])cc2)no1)[c-]1cccc1.O=C(OCc1cc(-c2ccc([N+](=O)[O-])cc2)no1)[c-]1cccc1.[Fe+2] [YJP-19]
[3]
  IC50: 157 µM
[1]
  IC50: 530 µM
[2]
  IC50: 178 µM
